# Results published in patent US9579330B2, “Use and application regimen of a pharmaceutical composition containing levonorgestrel and a COX inhibitor for on-demand contraception” (priority 2012, dated 2017).
# Read-outs that look alike come from different tables or passages of the source. Marks after values point to notes of the source that are not given here.
# Tests used:
# [1] = tested on: fertility of female rats; assay: Rat fertility test: single application in pro oestrus, pairing, number of implantation sites; assay type: in vivo, Han Wistar rats
# Protocol: In the experiments below, female Han Wistar rats with a weight of 200-270 g were used. The animals were kept in Macrolon cages in rooms with controlled lighting (12 hours darkness: 12 hours lightness), fed with a standard diet and watered with water ad libitum. Levonorgestrel was dissolved in benzyl benzoate/castor oil (1+4 v/v) and the daily dose was applied in a volume of 1 ml/kg of body weight s.c. The COX inhibitors were suspended in a carrier liquid (85 mg Myrj®53 polyoxyl(50)stearate; CAS No. 9004-99-3) in 100 ml of 0.9% w/v NaCl solution) and the dose corresponding to the treatment group was administered orally in a volume of 2 ml/kg of body weight. Two cycles were observed using vaginal smears prior to the start of the experiment. […] Assignment to the treatment groups was random. The animals were treated once with the test substances either on their own or in combination in pro oestrus, the day in the cycle on which in the evening the LH peaked. On the evening of […] the female animals were paired with male rats. Successful pairing was tested the next morning by means of a vaginal sperm detection in the vaginal smear. The influence on the fertility was ascertained 9-15 days after the pairing via the number of implantation sites of the animals. The group size was n=6 animals per group.
# [2] = tested on: fertility in humans; conditions: taken over a prolonged period for treating Bechterew's disease; cited from earlier work
# [3] = tested on: prostaglandin E2 (PEG2) synthesis in the ovaries
# [4] = tested on: cervical secretion; conditions: clinical study; cited from earlier work
# [5] = tested on: ovulation of women; assay: Clinical phase IIa study: oral single dose of piroxicam after start of the LH increase, ovulation inhibition or delay; assay type: in vivo; conditions: for Time from LH increase to ovulation in the treatment cycle, average value / Time from LH increase to ovulation in the treatment cycle, median / Time from LH increase to ovulation in the treatment cycle, range: N = 16; for % of women who exhibited an at least plus 24 hour delay in ovulation / Number of women who exhibited an at least plus 24 hour delay in ovulation compared to the median time between LH increase and ovulation in the untreated previous cycle: N = 16, final evaluation set
# Protocol: In a clinical phase IIa study (monocentric, double blind, placebo controlled, randomized, parallel groups), piroxicam was administered to women of a fertile age in the dosages 20, 40 and 80 mg as an oral single dose. Overall, 72 women were treated, of which 18 women were given 20 mg, 17 women were given 40 mg, 20 women were given 80 mg of piroxicam and 17 women were given a placebo preparation. It was the aim of the study to investigate whether the oral single administration of piroxicam after the start of the LH increase has an effect on ovulation compared to the placebo in healthy young women. An ovulation inhibition or delay by at least plus 24 hours longer than the median duration between LH increase and ovulation in the untreated previous cycle of the study population was evaluated as the effect. For this purpose, transvaginal ultrasound investigations and hormone level measurements were carried out. Only women (n=64) without serious protocol deviations which could have influenced the study aim were included in the final study evaluation.
# Adapted Kaplan-Meier curve for depicting the ovulation delay following administration of piroxicam compared to the administration of a placebo preparation. The time after the LH increase is plotted on the X axis in days. […] The individual curves represent the individual treatment groups: placebo group (solid line); 20 mg of piroxicam (dotted line consisting of short strokes), 40 mg of piroxicam (dotted line consisting of long strokes) and 80 mg of piroxicam (dotted line consisting of alternating long and short strokes).
# [6] = Table 2.5, LNG 0.5 mg/animal at 17:00 (n = 5), naproxen 10 mg/animal at 20:00 (n = 4), combination 17:00
# [7] = Table 2.5, naproxen 2 × 5 mg/animal at 17:00 and 20:00, alone or with LNG 0.5 mg/animal
# [8] = Table 2.4, treatment at 17:00, LNG 0.5 mg/animal, ibuprofen 12.5 mg/animal
# [9] = Table 2.4, treatment at 17:00, ibuprofen 25 mg/animal alone or with LNG 0.5 mg/animal
# [10] = Table 2.1, treatment at 7:00, LNG 0.5 mg/animal s.c., piroxicam 2 mg/animal oral, single application
# [11] = Table 2.1, treatment at 13:00, LNG 0.5 mg/animal s.c., piroxicam 2 mg/animal oral, single application
# [12] = Table 2.2, treatment at 17:00, LNG 0.5 mg/animal, indomethacin 1 mg/animal, combination n = 5
# [13] = Table 2.3, treatment at 17:00, LNG 0.5 mg/animal (n = 5), diclofenac 4 mg/animal
smiles,measurement,setting,value
"COc1ccc2cc([C@H](C)C(=O)O)ccc2c1 [Naproxen, naproxen]",Implantations per animal (average value ± SD),[1]; [6],5.8 ± 4.4
same,Sum of the implantation sites of 6 animals,[1]; [6],23**
same,Implantations per animal (average value ± SD),[1]; [7],7.3 ± 3.6
same,Sum of the implantation sites of 6 animals,[1]; [7],44
same,Antifertile effect in the rat fertility test (in words),"[1]; single application, doses as in Tables 2.1-2.5",reduction in fertility
same,Effect on fertility in humans (in words),[2],antifertile effect
same,"Prostaglandin E2 in the ovaries, average value","[3]; sample at 18:00, 2 hours after oral 20 mg/kg naproxen (around 16:00)",12.9 pg/500 μg tissue
same,"Prostaglandin E2 in the ovaries, average value","[3]; sample at 20:00, 4 hours after oral 20 mg/kg naproxen (around 16:00)",32.1 pg/500 μg tissue
same,"Prostaglandin E2 in the ovaries, average value","[3]; sample at 22:00, 6 hours after oral 20 mg/kg naproxen (around 16:00)",72.4 pg/500 μg tissue
same,Prostaglandin E2 (PEG2) synthesis in the ovaries (in words),[3]; under the action of naproxen,reduced
"CC(C)Cc1ccc(C(C)C(=O)O)cc1 (stereo not drawn) [Ibuprofen, ibuprofen]",Implantations per animal (average value ± SD),[1]; [8],10.8 ± 3.2
same,Sum of the implantation sites of 6 animals,[1]; [8],65
same,Implantations per animal (average value ± SD),[1]; [9],11.3 ± 2.6
same,Sum of the implantation sites of 6 animals,[1]; [9],68
"C#C[C@]1(O)CC[C@H]2[C@@H]3CCC4=CC(=O)CC[C@@H]4[C@H]3CC[C@@]21CC [LNG, levonorgestrel]",Implantations per animal (average value ± SD),[1]; [10],8.3 ± 4.3
same,"Sum of the implantation site, of 6 animals",[1]; [10],50
same,Implantations per animal (average value ± SD),[1]; [11],5.3 ± 3.1
same,"Sum of the implantation site, of 6 animals",[1]; [11],32
same,Implantations per animal (average value ± SD),[1]; [12],7.5 ± 4.0
same,Sum of the implantation sites of 6 animals,[1]; [12],45
same,Implantations per animal (average value ± SD),[1]; [13],6.8 ± 5.9
same,Sum of the implantation sites of 6 animals,[1]; [13],34*
same,Implantations per animal (average value ± SD),[1]; [8],10.5 ± 4.5
same,Sum of the implantation sites of 6 animals,[1]; [8],63
same,Implantations per animal (average value ± SD),[1]; [6],7.8 ± 5.9
same,Sum of the implantation sites of 6 animals,[1]; [6],39*
"COc1ccc2c(c1)c(CC(=O)O)c(C)n2C(=O)c1ccc(Cl)cc1 [Indomethacin, indomethacin]",Implantations per animal (average value ± SD),[1]; [12],4.8 ± 4.1
same,Sum of the implantation sites of 6 animals,[1]; [12],29
"O=C(O)Cc1ccccc1Nc1c(Cl)cccc1Cl [Diclofenac, diclofenac]",Implantations per animal (average value ± SD),[1]; [13],3.7 ± 3.6
same,Sum of the implantation sites of 6 animals,[1]; [13],22
same,Effect on cervical secretion (in words),[4],reduction in cervical secretion
"CN1C(C(=O)Nc2ccccn2)=C(O)c2ccccc2S1(=O)=O [Piroxicam, piroxicam]",Implantations per animal (average value ± SD),[1]; [10],9.5 ± 4.8
same,"Sum of the implantation site, of 6 animals",[1]; [10],57
same,Implantations per animal (average value ± SD),[1]; [11],10.0 ± 5.3
same,"Sum of the implantation site, of 6 animals",[1]; [11],60
same,Extension of the time (median) between LH increase and ovulation in the treatment cycle compared to the previous cycle,[5]; 20 mg oral single dose,17 h
same,"Time from LH increase to ovulation in the treatment cycle, average value",[5]; 20 mg oral single dose,133 h
same,"Time from LH increase to ovulation in the treatment cycle, median",[5]; 20 mg oral single dose,65 h
same,"Time from LH increase to ovulation in the treatment cycle, range",[5]; 20 mg oral single dose,38 to 416 h
same,% of women who exhibited an at least plus 24 hour delay in ovulation,[5]; 20 mg oral single dose,50.0%
same,Number of women who exhibited an at least plus 24 hour delay in ovulation compared to the median time between LH increase and ovulation in the untreated previous cycle,[5]; 20 mg oral single dose,8
same,Extension of the time (median) between LH increase and ovulation in the treatment cycle compared to the previous cycle,[5]; 40 mg oral single dose,15 h
same,"Time from LH increase to ovulation in the treatment cycle, average value",[5]; 40 mg oral single dose,121 h
same,"Time from LH increase to ovulation in the treatment cycle, median",[5]; 40 mg oral single dose,63 h
same,"Time from LH increase to ovulation in the treatment cycle, range",[5]; 40 mg oral single dose,37 to 384 h
same,% of women who exhibited an at least plus 24 hour delay in ovulation,[5]; 40 mg oral single dose,43.8%
same,Number of women who exhibited an at least plus 24 hour delay in ovulation compared to the median time between LH increase and ovulation in the untreated previous cycle,[5]; 40 mg oral single dose,7
same,Extension of the time (median) between LH increase and ovulation in the treatment cycle compared to the previous cycle,[5]; 80 mg oral single dose,228 h
same,"Time from LH increase to ovulation in the treatment cycle, average value",[5]; 80 mg oral single dose,219 h
same,"Time from LH increase to ovulation in the treatment cycle, median",[5]; 80 mg oral single dose,276 h
same,"Time from LH increase to ovulation in the treatment cycle, range",[5]; 80 mg oral single dose,48 to 386 h
same,% of women who exhibited an at least plus 24 hour delay in ovulation,[5]; 80 mg oral single dose,68.8%
same,Number of women who exhibited an at least plus 24 hour delay in ovulation compared to the median time between LH increase and ovulation in the untreated previous cycle,[5]; 80 mg oral single dose,11
same,Effect on ovulation compared to placebo (in words),"[5]; all three dose groups (20, 40, 80 mg)",more marked effect on ovulation than in the placebo group
